Patent US6667165B2, “Method and compositions for reversible inhibition of thermostable polymerases” (Eppendorf AG, priority 2001, dated 2003)

Tests used:
Format in all cases: biochemical
[1] = target: T1, Taq DNA polymerase (Thermus aquaticus, UniProt P19821); assay: M13 phage DNA primer extension assay (agarose gel read-out); details: for inhibition of Taq DNA polymerase at 40° C. (FIG. 5) / inhibition of Taq DNA polymerase (FIG. 6): 40° C.; for restoration of Taq DNA polymerase activity at 60° C.: concentration range tested, lowest 10 μmol; for inhibitory effect on Taq DNA polymerase in primer extension assay: 51° C., carbohydrates 1% w/vol, ds Lambda DNA 5 μg/rxn, 10 minutes pre-incubation with Taq
T1 construct: purchased Eppendorf AG
Description: A simple non-radioactive primer extension assay was used to monitor the activity of Taq DNA polymerase for DNA synthesis at various temperatures. The universal −47 M13 24-mer sequencing primer (New England Biolabs, Inc.) was annealed to circular single-stranded virion DNA from E. coli phage M13 (New England Biolabs, Inc.) to form an appropriate template for DNA synthesis by Taq DNA polymerase.
During the assay reactions, the annealed primer is extended by stepwise addition of complementary nucleotides (dNTP) on the single-stranded template DNA with Taq polymerase. The polymerase mediated primer extension reaction transforms the circular single-stranded (ss) template DNA into a double-stranded (ds) plasmid-like circular DNA molecule, as shown in FIG. 1. A completely ds circular phage DNA molecule is synthesized when the de-novo synthesized complementary strand reaches the 5′ end of the extended primer. This terminates the DNA synthesis process due to the weak strand displacement activity of Taq DNA polymerase. The ss primed template DNA, the full length ds circular DNA synthesis product, and intermediate synthesis products with ds regions of variable length differ from each other by their electrophoretic mobility in 1% agarose gels. The initial DNA template and all reaction products can be separated and monitored by electrophoresis in a 1% […] agarose gel stained with ethidium bromide.
The electrophoretic mobility of the three species reciprocally correlates with the length of the de-novo synthesized complementary strand. With increasing length of the ds regions, the migration of intermediate primer extension products shifts toward the slow migrating band of ds circular DNA (full-length synthesis product). The amount (band intensity) of the ds full-length synthesis product, as well as the migration shift of intermediate primer extension product, were used as a measure for the activity and extension rate of Taq DNA polymerase under various reaction conditions.
After the denaturation/annealing reaction the primed ss template DNA was stored frozen at −20° C. until use. 5 μL of this primed ss template DNA mix were added into a 50 μL primer extension assay reaction, or 2 μL into a 20 μL assay, respectively. The primer extension assay reactions were set-up on ice in 0.2 mL PCR tubes adding the reaction components to the following final concentrations:
The primer extension reactions were incubated for either 20 or 40 minutes on Eppendorf Mastercyclers set to the desired reaction temperature (30° C.-70° C.). At the end of the incubation time the reaction were placed on ice and 1 μL of 100 mM EDTA was added to stop the reaction immediately. 20 μL of each primer extension assay reaction were loaded on the 1% agarose gel for further analysis.
Soluble carbohydrates 5% w/vol aqueous solutions in molecular biology grade water were prepared. The desired carbohydrates or ds DNA were added to the primer extension reaction described above in Example 2 to final concentrations of 1% w/vol. In modification of the original primer extension assay the reaction mixtures were set-up without the primed template DNA. The primer-template DNA was added to the Taq DNA polymerase/carbohydrate sample after a 10 minutes pre-incubation in order to permit preliminary interaction of the carbohydrate with the Taq DNA polymerase, i.e., pre-incubate the carbohydrate onto the Taq DNA polymerase. The primer extension reactions were incubated for 40 minutes at 51° C. (the critical temperature for specific primer annealing). 20 μl of the reaction mixtures were analyzed on 0.7% agarose gel.
Primer extension assays were carried out in the presence of various concentration of dextran sulfate Mw 1500 (see FIG. 4), Mw 4000, Mw 5000 and Mw 8000 (see FIGS. 5 and 6). The reaction set-up was modified so that the dextran sulfates were pre-mixed into the Taq polymerase solution (5 U/μl) to provide final concentrations as indicated in the Figures. […]

[2] = target: T1, Taq DNA polymerase; assay: Primer extension assay quantified with picogreen (de-novo synthesized ds DNA); details: Mw4000, Mw5000, Mw8000 at 175 μmol, 30 μmol and 32 μmol; 5 minutes incubation; FIG. 10
Description: FIG. 10 graphically illustrates the temperature dependent inhibition of Taq DNA polymerase by dextran sulfate Mw4000, Mw5000, and Mw8000 which have been quantitatively analyzed. In each reaction the amount of de-novo synthesized double-stranded DNA was quantified with picogreen on a Fluorescence Microplate Reader. The amount of double-stranded DNA in the control reactions with unmodified Taq polymerase at each temperature tested were taken as 100% activity at the corresponding reaction temperature. […] at the corresponding reaction temperature and multiplied by 100 to calculate the percent of residual activity of dextran sulfate inhibited Taq polymerase from the activity of the unmodified enzyme at that temperature (bold line graphs). 100 minus the percent of residual activity of dextran sulfate inhibited Taq polymerase represents the percent of relative activity inhibition of dextran sulfate/Taq polymerase complexes at each temperature shown with dotted line graphs.
Primer extension was set-up as described in Example 4. The final concentrations of dextran sulfate Mw4000, Mw5000 and Mw8000 were adjusted to 175 μmol, 30 μmol and 32 μmol, respectively. At each tested incubation temperature a control reaction was carried out with unmodified Taq polymerase. After 5 minutes incubation the reactions were stopped as described earlier. 25.2 μl out of 50 μl were used to quantify the yield of de-novo synthesized double-stranded DNA with picogreen. The picogreen stained DNA samples were measured on a Fluorescence Microplate Reader.
The amount of double-stranded DNA in the control reactions with unmodified Taq polymerase at each temperature tested were taken as 100% activity at the corresponding reaction temperature. […]

[3] = target: T1, Taq DNA polymerase; assay: 2 kb human β-globin gene fragment PCR, specificity and yield on agarose gel
Procedure: In order to amplify a predictable sized DNA fragment of the human β-globin gene, a pair of known primers was selected from a region of the human β-globin gene (Collins et al (1984) Prog Nucleic Acid Res Mol Biol 31:315-462 to yield PCR products with length of 2.0 kb: The Taq DNA polymerase 5 U/μl containing 0.2 mM dextran sulfate Mw4000 was used in the PCR mixtures (10 mM Tris-HCl, pH 8.3, 50 mM KCl, 2.5 mM Mg(OAc)2, 200 μM dNTP) in which human genomic DNA (100 ng) was used as template. The PCR was performed as follows: 94° C. for 2 min followed by 35 cycles of 55° C.—20 seconds, 72° C.—2:30 minutes and 94° C. for −15 seconds. The PCR products were subjected to agarose gel electrophoresis. Negative control experiments were carried out under the same PCR conditions except that unmodified Taq DNA Polymerase was used in the reaction. A positive control experiment was carried out in the same PCR conditions except that AmpliTaq Gold DNA Polymerase (Perkin Elmer Biosystems), the market leading product for performing highly specific hot start PCR, with the appropriate reaction buffer were used in the reaction.
The same basic PCR assay was performed as described in the previous Examples, except that Taq DNA polymerase preparations were mixed with increasing amounts of dextran sulfate Mw4000. […]

[4] = 20 minutes, first concentration ranges
[5] = 20 minutes, re-fined concentration ranges

T1 sequence (P19821 whole entry): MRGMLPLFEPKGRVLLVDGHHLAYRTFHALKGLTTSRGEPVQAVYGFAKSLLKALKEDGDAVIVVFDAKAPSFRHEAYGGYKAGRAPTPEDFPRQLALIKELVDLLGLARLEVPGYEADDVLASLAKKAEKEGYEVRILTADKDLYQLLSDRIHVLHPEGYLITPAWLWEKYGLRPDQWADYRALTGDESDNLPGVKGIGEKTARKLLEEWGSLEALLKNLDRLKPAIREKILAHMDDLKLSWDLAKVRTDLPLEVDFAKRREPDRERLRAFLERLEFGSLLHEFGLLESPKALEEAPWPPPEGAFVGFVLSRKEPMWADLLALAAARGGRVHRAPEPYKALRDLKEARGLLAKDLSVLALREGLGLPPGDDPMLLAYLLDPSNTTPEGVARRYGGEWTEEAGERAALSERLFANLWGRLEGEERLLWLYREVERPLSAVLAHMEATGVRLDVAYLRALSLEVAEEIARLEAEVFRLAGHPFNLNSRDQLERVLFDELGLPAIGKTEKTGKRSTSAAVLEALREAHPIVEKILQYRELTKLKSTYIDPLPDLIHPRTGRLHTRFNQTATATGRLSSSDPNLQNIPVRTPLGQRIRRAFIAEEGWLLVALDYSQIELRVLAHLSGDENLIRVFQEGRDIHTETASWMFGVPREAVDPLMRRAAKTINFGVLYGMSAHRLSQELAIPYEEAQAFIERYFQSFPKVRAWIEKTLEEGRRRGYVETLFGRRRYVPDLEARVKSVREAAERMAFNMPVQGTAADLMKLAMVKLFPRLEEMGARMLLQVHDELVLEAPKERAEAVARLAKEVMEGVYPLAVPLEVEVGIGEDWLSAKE

## dextran sulfate [dextran sulfate Mw 8000]
[1]; [4]
  inhibition of Taq DNA polymerase at 40° C. (FIG. 5): strong inhibition
[1]; [5]
  inhibition of Taq DNA polymerase (FIG. 6): strong inhibition
[2]
  temperature dependence of Taq DNA polymerase inhibition (relative to unmodified Taq): inhibit Taq DNA polymerase in a temperature dependent manner

## dextran sulfate [dextran sulfate Mw 4000]
[1]; [4]
  inhibition of Taq DNA polymerase at 40° C. (FIG. 5): strong inhibition
[1]; [5]
  inhibition of Taq DNA polymerase (FIG. 6): strong inhibition
[3]; 100 ng human genomic DNA, Taq 5 U/μl containing 0.2 mM dextran sulfate, 35 cycles, FIG. 7
  effect on specificity of the PCR reaction: significantly enhanced the specificity
[3]; increasing amounts of dextran sulfate, FIG. 8
  yield and specificity of the 2 kb PCR fragment versus concentration: clear correlation
[2]
  temperature dependence of Taq DNA polymerase inhibition (relative to unmodified Taq): inhibit Taq DNA polymerase in a temperature dependent manner

## dextran sulfate [dextran sulfate Mw 1500]
[1]; 50° C. and 60° C., FIG. 4
  concentration at which partial release of inhibition was detected: < 50 µmol
[1]; 20 minutes
  restoration of Taq DNA polymerase activity at 60° C.: only be partially restored
[1]; 20 minutes, listed as dextran sulfate Mw 1,500
  restoration of Taq DNA polymerase activity at 60° C.: full synthesis activity could not be regained

## methylcellulose [reference compound]
[1]
  inhibitory effect on Taq DNA polymerase in primer extension assay: weak inhibitory effect

## dextran sulfate [dextran sulfate Mw 5000]
[1]; [4]
  inhibition of Taq DNA polymerase at 40° C. (FIG. 5): strong inhibition
[1]; [5]
  inhibition of Taq DNA polymerase (FIG. 6): strongest inhibition of all dextran sulfate derivatives tested
[1]; MW 5000
  inhibitory effect on Taq DNA polymerase in primer extension assay: strong inhibition
[1]; listed as dextran sulfate having a molecular weight of 5000
  inhibitory effect on Taq DNA polymerase in primer extension assay: strong inhibitor
[1]; 20 minutes, dextran sulfate pre-mixed into Taq polymerase solution
  concentration at which almost full Taq polymerase activity could be restored between 60-70° C.: 1.25 µM
[1]; first concentration ranges, 40° C.-70° C., 20 minutes
  concentration range with strong inhibition at 40° C. and release of almost full activity at 70° C. (FIG. 5): 1.25 µmol
[1]; re-fined concentration ranges, 40° C.-70° C., 20 minutes
  concentration range with strong inhibition at 40° C. and release of almost full activity at 70° C. (FIG. 6): 1.25 µmol
[2]
  temperature dependence of Taq DNA polymerase inhibition (relative to unmodified Taq): inhibit Taq DNA polymerase in a temperature dependent manner
